Reference: patent publication US12589143B2, “Human anti-PD-L1 peptide vaccines and methods of their use” (priority 2019, dated 2026)
Where no end group is shown, it is not given here.

Key:
[1] = target: T1, PD-1/PD-L1 interaction (Homo sapiens, UniProt Q9NZQ7); test: PD-1/PD-L1 blockade bioassay (Promega); assay type: cell-based; details: antibodies from immunized rabbits, compared to Nivolumab and Atezolizumab
T1 construct: host or cells: PD-L1 aAPC/CHO-K1 cells and PD-1 effector cells
Procedure: The assay was performed following the manufacturer's protocol for the PD-1/PD-L1 blockade bioassay (Promega).
The bioluminescent cell-based PD-1/PD-L1 blockade bioassays provide a good option for rapid screening of therapeutic antibodies or other compounds developed to interfere with PD-1-signaling interaction. PD1/PD-L1 blockade assay was used to test the functionality of 3 anti-PD-L1 antibodies. It was observed that purified polyclonal anti-PD-L1 antibody from the rabbits was able to block PD1/PD-L1 interaction similar to commercial anti-human PD-L1 antibody (FIG. 12). […] In FIG. 12, we show the capacity of each of the PD-L1 vaccines to block the PD-1:PD-L1 interaction as compared to Nivolumab and Atezolizumab. Remarkably only PD-L1 130-147 antibodies were effective
The assay was performed following the manufacturer's protocol for the PD-1/PD-L1 blockade bioassay (Promega). In brief, 4×10^5 aAPC/CHO-K1 or PD-L1 aAPC/CHO-K1 cells were seeded into 96-well plates in RPMI-1640 with 10% FBS. After overnight culturing, the medium was aspirated, and serially diluted purified PD-L1 or PD-1 antibodies, as well as Nivolumab and Atezolizumab antibodies (as reference antibodies) were added. Next, PD-1 effector cells were co-cultured and plate was kept for 5 h at 37° C. in a humidified 5% CO2 incubator. Following mixing with Bio-Glo Reagent, the luminescence was measured with a luminescence plate reader, SpectraMax M3 plate reader (Molecular Devices).

[2] = system: CT26/HER-2 carcinoma cell line; test: CT26/HER-2 tumor challenge in immunized Balb/c mice; assay type: in vivo; details: for tumor growth inhibition: CT26/HER-2, day 16
Description: (PMID: 29337305). […] Balb/c mice 6-8 weeks old, were immunized with MVF-peptide immunogens emulsified in ISA 720 with nor-MDP three times and three weeks apart. Mice were immunized with MVF-PD-L1 vaccine constructs [PD-L1(36-53), PD-L1(50-67), PD-L1(95-112), PD-L1(130-147)] prior to tumor challenge. Blood was collected weekly and sera tested for antibody titers by ELISA. Two weeks after the third immunization (3Y), the mice were engrafted with CT26 WT tumor cells 10^5 per mouse Control mice were treated twice weekly with PBS as negative control and twice weekly with anti-mPD-L1 mAb (10F.9G2) as positive control starting 2 days after tumor challenge. Tumor growths were observed twice weekly and measured by calipers.
Vaccines were dissolved in water and emulsified in Montanide ISA 720 (1:1) and 50 μg nor-MDP (N-acetylglucosamine-3yl-acetyl-1-alanyl-d-isoglutamine). Female Balb/c mice (Charles River Laboratories) at the age of 5 to 6 week were immunized three times at 3-week intervals with 100 μg of each peptide vaccine, and 2 weeks after the third immunization, the mice were challenged s.c. with CT-26-HER2 neu tumor cells (100,000 per mouse).
Mice treated twice a week with anti-mouse PD-L1 MAb 10F.9G2 (Bio X Cell, West Lebanon, NH) 200 ug/dose was used as a positive control or purified mouse IgG from mouse sera (Sigma-Aldrich, St. Louis, Mo) as a negative control. Tumor growth was monitored for up to 21 days after challenge. During immunization, blood was drawn biweekly and used in ELISA to monitor Ab titers. The mice were euthanized at the end of treatment and tumors extracted and weighed samples of the tumors were saved for further study and for histological examination.
Two weeks after the third immunization (3Y), the mice were inoculated subcutaneously (s.c) with CT26 carcinoma cells (1×10^5 cells per mouse) and tumor formation was monitored on a daily basis afterwards. Mice treated with PBS served as negative control, and twice weekly treated mice with 200 μg/dose injections of anti-mouse PD-L1 monoclonal antibody (mAb clone 10F.9G2) served as positive control. Tumor growth was monitored daily and measured by caliper. […] PD-L1 B-cell epitope vaccines treatment had similar and significant reduction in tumor growth at day 16 post challenge as compared to negative control treatment with PBS (FIG. 19). […] Tumor sizes at various times are also shown in FIG. 20 and one-way analysis of variance (one-way ANOVA) followed by the Tukey's multiple comparisons test were used to compare data in multiple groups or data between groups.
We also analyzed the different isotypes of antibodies being generated by vaccination.
6-8 weeks old BALB/c mice (Charles River, Wilmington, MA) were used as standard animal models. Mouse CT26 colon carcinoma cell line was purchased from American Type Culture Collection Cells and were regularly cultured in RPMI1640 medium containing 10% FBS. CT26/HER2 cells were kindly provided by M. Penichet. Vaccines were dissolved in sterile water and emulsified in Montanide ISA 720 (1:1). Female Balb/c mice (Charles River Laboratories) at the age of 6-8 weeks were immunized three times at 3-week intervals with 100 μg of each peptide vaccine, and 2 weeks after the third immunization, the mice were challenged with CT26 and/or CT26/HER-2 tumor cells, which were implanted subcutaneously (s.c) on the right flank (1×10^5 per mouse). 200 μg of rat α-mouse PD-L1 mAb 10F.9G2 (Bio X Cell, West Lebanon, NH) were administered intraperitoneally (i.p.), twice weekly following tumor inoculation in the control group. Mice were monitored and scored for the formation of palpable tumors on a daily basis and sacrificed if tumors became necrotic or exceeded the predetermined size of 2,000 mm^3. Tumor volumes were measured in cubic millimeters with calipers and calculated with the following formula: A×B^2×0.5, where A is the largest diameter, and B is the widest point perpendicular to length. […]

T1 sequence (Q9NZQ7 19-290): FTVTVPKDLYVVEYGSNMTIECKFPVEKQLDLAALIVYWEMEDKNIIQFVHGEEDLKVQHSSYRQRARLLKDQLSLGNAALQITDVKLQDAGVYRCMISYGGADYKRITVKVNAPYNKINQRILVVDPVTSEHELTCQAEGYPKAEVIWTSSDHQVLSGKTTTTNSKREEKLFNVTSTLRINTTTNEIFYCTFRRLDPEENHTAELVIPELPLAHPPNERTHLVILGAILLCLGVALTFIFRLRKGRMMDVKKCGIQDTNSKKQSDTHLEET

Sequence | blocking of PD-1/PD-L1 interaction [1] | tumor growth inhibition [2] | levels of lesions ([2]; CT26/HER-2) | percentage of tumor growth inhibition compared to negative control ([2]; CT26/HER-2) | tumor inhibition versus PBS ([2]; CT26/HER-2, Balb/c) | survival rate ([2]; CT26/HER-2, Kaplan-Meier method) | 50% mice survival time / survival rate ([2]; CT26 HER2, compared to the other PD-L1 epitopes)
KLLSLIKGVIVHRLEGVEGPSLFVHGEEDLKVQHSSYRQR (KLLSLIKGVIVHRLEGVEGPSLFVHGEEDLKVQHSSYRQR-NH2) [PD-L1(50)] | unable to block PD-1 and PD-L1 | strongest tumor growth inhibition |  |  |  |  | 
KLLSLIKGVIVHRLEGVEGPSLLIVYWEMEDKNIIQFVHG (KLLSLIKGVIVHRLEGVEGPSLLIVYWEMEDKNIIQFVHG-NH2) [PD-L1(36)] |  | strongest tumor growth inhibition |  |  |  |  | 
KLLSLIKGVIVHRLEGVEGPSLVTSEHELTCQAEGYPKAE (KLLSLIKGVIVHRLEGVEGPSLVTSEHELTCQAEGYPKAE-NH2) [PD-L1(130)] | able to inhibit PD-1/PD-L1 | strongest tumor growth inhibition | lowest levels of lesions | Significant higher percentage of tumor growth inhibition | superior tumor growth inhibition | highest survival rate | better survival rate
KLLSLIKGVIVHRLEGVEGPSLYRCMISYGGADYKRITVK (KLLSLIKGVIVHRLEGVEGPSLYRCMISYGGADYKRITVK-NH2) [PD-L1(95)] | unable to block PD-1 and PD-L1 | strongest tumor growth inhibition |  |  |  |  | 
